Laboratory results as given in a melting point compilation (Tetko et al.).

SMILES | melting point
COc1ccc(OC)c(C=CC(=O)n2cnc3c(N)ncnc32)c1 | 260 to 262 °C
CC(C)(C)c1ccc(C(C)(C)C)cc1 | 79.5 °C
CSc1cc(-c2ccc(Cl)cc2)c2c(=O)n(-c3ccccc3)n(C)c2c1 | 167 °C
O=C(Cc1ccccc1)OC1Cc2ccccc21 (stereo not given) | 42 °C
O=Cc1cc(O)c(O)cc1O | 223 °C
O=C(c1ccc(Br)cc1)c1[nH]c2c(c1O)C(c1ccc(Br)cc1)c1c(c3ccccc3oc1=O)O2 (stereo not given) | 230 °C
O=C1NC(=S)NC(=O)C1=Cc1ccc(-c2ccc(Cl)cc2)o1 | 280 °C
O=C(O)Cc1ccc(O)c([N+](=O)[O-])c1 | 147 °C
CC12CCC(C(CCC3C(=O)C4(C)CCC3C4(C)C)C1=O)C2(C)C (stereo not given) | 210 °C
Cc1nccn1-c1ccccc1N | 132 to 134 °C
FC(F)(F)c1cnc(N2CCNCC2)c(Cl)c1 | 65 to 67 °C
CC(C)C(=O)NN | 97 to 100 °C
CCOc1cccc(C(=O)NN)c1 | 102 °C
CSc1nc(N)c2ccccc2n1 | 233 to 235 °C
CC(C)(C)c1cc(C(=O)O)n(Cc2ccccc2)n1 | 126 °C
NNC(=O)c1ccc(O)c(N)c1 | 251 °C
C=CC(=O)OCC(CC)CCCC (stereo not given) | -90 °C
CCOC1=NN(c2ccc([N+](=O)[O-])cc2)C(=O)C1 | 142 °C
COc1ccc(OC)c(C=C[N+](=O)[O-])c1 | 114 to 119 °C
CC1(C)CC(=O)C=C(C(=O)O)O1 | 167 to 171 °C
CCc1nnc(-c2ccccn2)nc1CC | 70 °C
O=C(O)c1ccc(O)c(O)c1 | 201 °C
CC(=O)Oc1c(-c2ccccc2)[nH]c2cc([N+](=O)[O-])ccc12 | 191 °C
O=C(NC(Cc1ccco1)C(=O)O)OCC1c2ccccc2-c2ccccc21 (stereo not given) | 130 °C

SMILES | melting point
CCc1ccccc1NC(=O)c1cccc2ccccc12 | 175 °C
COC(=O)C=Cc1ccccc1 | 36 °C
Cc1nc2cc(-c3ccccc3)ccc2o1 | 63 °C
O=C(C1=NOC2C(=O)N(c3ccc(Br)cc3)C(=O)C12)c1ccc2ccccc2c1 (stereo not given) | 186 °C
OCc1ccc(-n2cccc2)cc1 | 102 to 105 °C
Nc1cc(=O)oc2ccccc12 | 232 to 234 °C
O=C(O)Cc1ccccc1Nc1c(Cl)cccc1Cl | 157 °C
Nc1ncccc1I | 90 °C
ClC(C(Cl)(Cl)Cl)C(Cl)(Cl)Cl | 11 °C
O=Cc1cccc2ccccc12 | 33.5 °C
BrCC=Cc1ccccc1 | 26 to 32 °C
CCOC(=O)c1c(C=O)c(C)n(-c2ccccc2)c1C | 78 to 81 °C
Cc1cc(Cl)c(C)cc1N | 94 to 96 °C
Clc1cc(I)ccn1 | 43 °C
Cc1ccc2cnccc2c1 | 85.5 °C
O=C(Cc1ccccc1)C(c1ccccc1)N1CCCCC1 (stereo not given) | 137 °C
COc1nsc(Nc2ccc(Cl)cc2)n1 | 247 to 249 °C
C=C1C(C)CCC2(C)C3=C(C(=O)C4(CC4C)C(O)C3=O)C(OC(C)=O)C(O)C12 (stereo not given) | 195 to 196 °C
CCCCCCCCCCCCCCCC(=O)OCCC | 20.4 °C
CC12CC(O)C3C(CCC4(O)CC(O)CC(O)C34CO)C1(O)CCC2C1=CC(=O)OC1 (stereo not given) | 236 °C
NC(=O)NN=CC(=O)c1cc(C(=O)C=NNC(N)=O)cc(C(=O)C=NNC(N)=O)c1 | > 300 °C
O=C1CCCCC1C1CCCCC1 (stereo not given) | -32 °C
COP(=S)(Oc1cc(Cl)c(Br)cc1Cl)c1ccccc1 (stereo not given) | 70.4 °C
CC(=O)CS(=O)(=O)c1ccc(C)cc1 | 52 to 54 °C

SMILES | melting point
CCOC(=O)C1C(c2ccc(OC)cc2)C(C(=O)OCC)C(O)(C(F)(F)F)NC1(O)C(F)(F)F (stereo not given) | 109 °C
CC1CC(C)(C)CC(OOC(C)(C)C)(OOC(C)(C)C)C1 (stereo not given) | -20 °C
Nc1ccc(S(=O)(=O)Nc2cnccn2)cc1 | 251 °C
C[C@H]([C@@H](O)c1ccccc1)N1CCCC1 | 45 °C
Nc1nn2c(C(F)(F)F)cc(=O)[nH]c2c1/N=N/c1cccc(F)c1 | 305 to 306 °C
[N-]=[N+]=NC(=O)C=Cc1ccc(C=CC(=O)N=[N+]=[N-])cc1 | 80 °C
Nc1n[nH]c(N)c1Cc1ccccc1Cl | 120 to 121 °C
CCc1nnc(/N=N/c2c(-c3ccccc3)n(C)c3ccccc23)s1 | 221 °C
CCOc1ccc(Br)cc1C=O | 69 °C
CCc1c(C)n[nH]c1C | 40 to 45 °C
C#Cc1cccnc1 | 40 °C
NC(=O)c1cnc2ccccc2n1 | 195 °C
COC(=O)c1ccc(C(F)(F)F)cc1 | 14 °C
Cc1ccccc1-c1ccccc1P(C(C)(C)C)C(C)(C)C | 91.5 °C
O=C(CBr)c1ccco1 | 34 °C
CC1=NN(c2ccc(S(=O)(=O)O)cc2)C(=O)C1 | 300 °C
c1ccc(-c2cc[nH]n2)cc1 | 75 to 77 °C
COc1cccc(F)c1C#N | 103 °C
CCOC(=O)c1cn[nH]c1 | 77 °C
FC(F)C(F)(F)F | -103 °C
c1ccc(COc2ccc3ccccc3c2)cc1 | 97 °C
CC(=O)OOC(C)=O | 30 °C
CC(C)(C)c1ccc(CCO)cc1 | 33 °C
O=Cc1cccc(N2CCOCC2)c1 | 68 to 70 °C

Other lines, results leading:

melting point | SMILES
153 to 155 °C | Nc1nnc(C2CCC2)[nH]1
107 °C | Nc1ccc(C(F)(F)F)cc1[N+](=O)[O-]
90 to 91 °C | O=Cc1ccc(-c2nccs2)cc1
147 to 150 °C | COc1ccc(C(C)=NO)cc1OC
159 °C | Cc1cccc(C)c1NC(=O)CN1CCN(CCCC(c2ccc(F)cc2)c2ccc(F)cc2)CC1
159 to 160 °C | CSc1nc(N)c(C(C)=O)s1
78 to 80 °C | CCOc1cccc(OCC(F)(F)F)c1C#N
160 to 165 °C | NC(=O)C[C@H](NC(=O)OCc1ccccc1)C(=O)O
34.5 °C | CCC1(O)CCCCC1
94 to 96 °C | CC(C(=O)NCCO)c1ccc(-c2ccccc2)c(F)c1 (stereo not given)
55 to 58 °C | O=C(Cl)c1ccc2nonc2c1
-12.5 °C | CC(=O)O[Si](C)(C)OC(C)=O
50.5 °C | CC(C)(C(=O)c1cccnc1)c1cccnc1
-70 °C | CCCCC(CC)CO (stereo not given)
219 to 221 °C | Cc1nc(NC(=O)NS(=O)(=O)c2cccs2)nc(O)c1C
87 to 89 °C | Brc1ccc(-c2ccccn2)s1
280 to 282 °C | Cc1ccc2[nH]cc(CC(N)C(=O)O)c2c1 (racemic)
38 °C | Oc1c(F)c(F)cc(F)c1F
146 to 151 °C | CC(C)(C)OC(=O)C=P(c1ccccc1)(c1ccccc1)c1ccccc1
322 °C | CC(=O)Nc1ccc(C=Cc2ccc(NC(C)=O)cc2)cc1

melting point | SMILES
69 to 72 °C | OC1CC(O)C(O)CO1 (stereo not given)
143 to 145 °C | CC(=O)Nc1ccc(C(C)=O)c(O)c1
133 to 134 °C | O=[N+]([O-])c1ccc(C(O)CNCc2ccccc2)cc1 (stereo not given)
88 to 92 °C | OCC1OC(O)C(O)C1O (stereo not given)
49.5 °C | CC(Cl)(Cl)C(=O)OCCOc1cc(Cl)c(Cl)cc1Cl
118 °C | O=C1C(=Cc2ccccc2)CCCC1=Cc1ccccc1
-95.8 °C | CC(C)COC=O
232 °C | NC(=S)NN=C1C(=O)Nc2ccccc21
87 to 91 °C | OCC(F)(F)C(F)(F)C(F)(F)C(F)(F)C(F)(F)C(F)(F)C(F)(F)C(F)(F)C(F)(F)F
140 °C | COc1c(C(=O)O)csc1Cl
135 °C | CC(=O)OCC1OC(OC2OC=CC3C(OC(=O)c4ccc(OC(C)=O)cc4)C4OC4(COC(C)=O)C23)C(OC(C)=O)C(OC(C)=O)C1OC(C)=O (stereo not given)
70 °C | CCCOc1ccccc1OCC(O)CO (stereo not given)
185 to 186 °C | Clc1nc[nH]c1Cl
112 to 113 °C | Cc1nc(-c2ccc(C(=O)Cl)cc2)no1
257 °C | N#Cc1c(N)cc(N)nc1Br
174 to 176 °C | CC(=O)N1CCC(c2c[nH]c3ccccc23)CC1
190 to 195 °C | O=[N+]([O-])c1ccc2c(c1)OCCOCCOc1ccccc1OCCOCCO2
250 °C | Cn1nnc2cc(C(=O)O)ccc21
115 °C | O=Cc1cccc2cnccc12
228 °C | COS(=O)(=O)c1cc([N+](=O)[O-])ccc1C=Cc1ccc([N+](=O)[O-])cc1S(=O)(=O)OC

melting point | SMILES
87 °C | O=C(O)c1ccccc1-c1ccco1
110 to 112 °C | Nc1cc(F)c(Cl)cc1N
169 °C | O=C(NC(Cc1cccs1)C(=O)O)OCC1c2ccccc2-c2ccccc21 (stereo not given)
109 °C | CCCCCCCCCCCCCCCCCC(N)=O
57 to 59 °C | O=Cc1ccc(-c2ccccc2)nc1
194 to 195 °C | Cc1cc(C)n(N=Cc2ccccc2)c(=O)c1C#N
112 °C | OC12CCCCC1c1ccccc12 (stereo not given)
-68 °C | FC(F)(F)C(F)(F)C(F)(F)C(F)(F)I
84 °C | Nc1ncc(Cl)cc1Br
92 to 100 °C | O=C1NC2C=CC1C2 (single isomer, unassigned; (-))
110 to 120 °C | CC1=NN(c2ccc(Cl)cc2Cl)C(=O)C1C(Cl)C1(Cl)C(=O)N(c2ccc(Cl)cc2Cl)N=C1C (stereo not given)
22 to 23 °C | O=C(Cl)c1ccc(Oc2ccccc2)cc1
-100 °C | CN(C)CCCCN(C)C
27 °C | CCN(CC)c1ccc(N)cc1
220 to 223 °C | O=C1CCC(c2ccc(NC(=O)CCl)cc2)=NN1
110 to 111 °C | CSc1ncccc1-c1nc(CCl)no1
184 °C | CC(=O)/N=c1\sc(C(C)=O)nn1-c1ccccc1[N+](=O)[O-]
133 °C | Cc1nc2cc([N+](=O)[O-])ccc2s1
